Test results reported in ChEMBL document CHEMBL5608163, “Structure modification of anoplin for fighting resistant bacteria” (Eur J Med Chem, 2024).
≈ marks a conversion by molar mass, not a printed value. Square brackets hold non-standard residues; d marks the D form. Peptide text beside a SMILES is read from it. * marks the point of attachment. NMeI = CC[C@H](C)[C@H](NC)C(=O)O; Tridecanoyl = CCCCCCCCCCCCC(=O)*; hIle = CC[C@H](C)C[C@H](N)C(=O)O; Cha = N[C@@H](CC1CCCCC1)C(=O)O; NMeL = CN[C@@H](CC(C)C)C(=O)O

Columns and labels:
[1] = tested on: Staphylococcus aureus; experiment: Antibacterial activity against Staphylococcus aureus ATCC 25923 assessed as reduction in bacterial growth incubated for 18 to 24 hrs by broth microdilution method; assay type: functional; details: time 18-24 hrs
[2] = tested on: Escherichia coli; experiment: Antibacterial activity against Escherichia coli ATCC 25922 assessed as reduction in bacterial growth by broth microdilution method; assay type: functional
[3] = Hemolytic activity in human RBC; assay type: toxicity, cell-based, Erythrocyte; details: red blood cells
[4] = Hemolytic activity in mouse Red blood cells incubated for 1 hr by microplate reader assay; assay type: toxicity, cell-based, Erythrocyte; details: red blood cells
[5] = tested on: Staphylococcus aureus; experiment: Antibacterial activity against Staphylococcus aureus ATCC 25923 assessed as reduction in bacterial cell growth measured for 18 hrs by Mueller-Hinton broth based two-fold serial dilution method; assay type: functional
[6] = tested on: Bacillus subtilis; experiment: Antibacterial activity against Bacillus subtilis ATCC 23857 assessed as reduction in bacterial cell growth measured for 18 hrs by Mueller-Hinton broth based two-fold serial dilution method; assay type: functional
[7] = tested on: Escherichia coli; experiment: Antibacterial activity against Escherichia coli ATCC 25922 assessed as reduction in bacterial cell growth measured for 18 hrs by Mueller-Hinton broth based two-fold serial dilution method; assay type: functional
[8] = tested on: Pseudomonas aeruginosa; experiment: Antibacterial activity against Pseudomonas aeruginosa ATCC 27853 assessed as reduction in bacterial cell growth measured for 18 hrs by Mueller-Hinton broth based two-fold serial dilution method; assay type: functional
[9] = tested on: Klebsiella pneumoniae; experiment: Antibacterial activity against Klebsiella pneumoniae ATCC 700603 assessed as reduction in bacterial cell growth measured for 18 hrs by Mueller-Hinton broth based two-fold serial dilution method; assay type: functional
[10] = tested on: Staphylococcus aureus; experiment: Antibacterial activity against Staphylococcus aureus ATCC 25923 assessed as reduction in bacterial growth incubated for 18 to 20 hrs by Mueller Hinton broth dilution method; assay type: functional; details: time 18-20 hrs
[11] = tested on: Bacillus subtilis; experiment: Antibacterial activity against Bacillus subtilis ATCC 23857 assessed as reduction in bacterial growth incubated for 18 to 20 hrs by Mueller Hinton broth dilution method; assay type: functional; details: time 18-20 hrs
[12] = tested on: Escherichia coli; experiment: Antibacterial activity against Escherichia coli ATCC 25922 assessed as reduction in bacterial growth incubated for 18 to 20 hrs by Mueller Hinton broth dilution method; assay type: functional; details: time 18-20 hrs
[13] = tested on: Pseudomonas aeruginosa; experiment: Antibacterial activity against Pseudomonas aeruginosa ATCC 27853 assessed as reduction in bacterial growth incubated for 18 to 20 hrs by Mueller Hinton broth dilution method; assay type: functional; details: time 18-20 hrs
[14] = tested on: Klebsiella pneumoniae; experiment: Antimicrobial activity against Klebsiella pneumoniae assessed as reduction in bacterial growth incubated for 18 to 20 hrs by Mueller-Hinton broth based microdilution method; assay type: functional; details: time 18-20 hrs
[15] = tested on: Pseudomonas aeruginosa; experiment: Antibacterial activity against Pseudomonas aeruginosa ATCC 27853 assessed as reduction in microbial growth incubated for 16 to 20 hrs by CLSI protocol based Muller Hinton broth assay; assay type: functional; details: time 16-20 hrs
[16] = tested on: Staphylococcus aureus; experiment: Antibacterial activity against methicillin-resistant Staphylococcus aureus ATCC 33591 assessed as reduction in bacterial growth incubated for 18 hrs by agar dilution method; assay type: functional
[17] = tested on: Enterococcus faecium; experiment: Antibacterial activity against vancomycin resistant Enterococcus faecium ATCC 700221 assessed as inhibition of bacterial growth incubated for 48 hrs by CLSI-based broth microdilution assay; assay type: functional
[18] = tested on: Escherichia coli; experiment: Antibacterial activity against Escherichia coli ATCC 25922 assessed as reduction in microbial growth incubated for 16 to 20 hrs by CLSI protocol based Muller Hinton broth assay; assay type: functional; details: time 16-20 hrs
[19] = Hemolytic activity in human RBC assessed as hemolysis measured after 24 hrs; assay type: toxicity, cell-based, Erythrocyte; details: red blood cells

## CC[C@H](C)[C@H](NC(=O)[C@H](C)NC(=O)[C@H](CCCCN)NC(=O)[C@H](CC(C)C)NC(=O)[C@H](CC(C)C)NC(=O)CN)C(=O)N[C@@H](CCCCN)C(=O)N[C@H](C(=O)N[C@@H](CC(C)C)C(=O)N[C@@H](CC(C)C)C(N)=O)[C@@H](C)O (H-GLLKAIKTLL-NH2)
[1]
  MIC: 9.4 µM (≈ 10 µg/mL)
[2]
  MIC: 4.7 µM (≈ 5.02 µg/mL)
[3]
  HC50: 151 µM

## CC[C@H](C)[C@H](NC(=O)[C@H](CCCNC(=N)N)NC(=O)[C@H](C)NC(=O)[C@H](CC(C)C)NC(=O)[C@H](CC(C)C)NC(=O)CN)C(=O)N[C@@H](CCCCN)C(=O)N[C@H](C(=O)N[C@@H](CC(C)C)C(=O)N[C@@H](CC(C)C)C(N)=O)[C@@H](C)O (H-GLLARIKTLL-NH2)
[1]
  MIC: 25.6 µM (≈ 28.1 µg/mL)
[2]
  MIC: 14.6 µM (≈ 16 µg/mL)

## CCCCCCCCCCCCC(=O)NCC(=O)N[C@@H](CC(C)C)C(=O)N(C)[C@@H](CC(C)C)C(=O)N[C@@H](CCCCN)C(=O)N[C@@H](CCCNC(=N)N)C(=O)N(C)[C@H](C(=O)N[C@@H](CCCCN)C(=O)N[C@H](C(=O)N[C@@H](CC(C)C)C(=O)N[C@@H](CC(C)C)C(N)=O)[C@@H](C)O)[C@@H](C)CC (Tridecanoyl-GL[NMeL]KR[NMeI]KTLL-NH2)
[4]
  HC50 at 1 h: 64 µM
[5]
  MIC: 4 µM (≈ 5.51 µg/mL)
[6]
  MIC: 4 µM (≈ 5.51 µg/mL)
[7]
  MIC: 8 µM (≈ 11 µg/mL)
[8]
  MIC: 8 µM (≈ 11 µg/mL)
[9]
  MIC: 32 µM (≈ 44.1 µg/mL)

## CC[C@H](C)[C@H](NC(=O)[C@H](CCCNC(=N)N)NC(=O)[C@@H](CCCCN)NC(=O)[C@H](CC(C)C)NC(=O)[C@H](CC(C)C)NC(=O)CN)C(=O)N[C@@H](CCCCN)C(=O)N[C@@H](C(=O)N[C@@H](CC(C)C)C(=O)N[C@@H](CC(C)C)C(N)=O)[C@H](C)O
[10]
  MIC: > 256 µM
[11]
  MIC: 32 µM (≈ 36.9 µg/mL)
[12]
  MIC: 256 µM (≈ 295 µg/mL)
[13]
  MIC: 128 µM (≈ 148 µg/mL)
[14]
  MIC: > 256 µM

## CC[C@H](C)C[C@H](NC(=O)[C@H](CCCNC(=N)N)NC(=O)[C@H](CCCCN)NC(=O)[C@H](CC(C)C)NC(=O)[C@H](CC(C)C)NC(=O)CN)C(=O)N[C@@H](CCCCN)C(=O)N[C@H](C(=O)N[C@@H](CC(C)C)C(=O)N[C@@H](CC1CCCCC1)C(N)=O)[C@@H](C)O (H-GLLKR[hIle]KTL[Cha]-NH2)
[15]
  MIC: 28.4 µM
[16]
  MIC: 28.4 µM (≈ 34.3 µg/mL)
[17]
  MIC: 26.3 µM (≈ 31.8 µg/mL)
[18]
  MIC: 12.5 µM
[19]
  HC50 at 24 h: 317 µM

## CC(C)C[C@H](NC(=O)[C@H](CC(C)C)NC(=O)[C@@H](NC(=O)[C@H](CCCCN)NC(=O)[C@H](C)NC(=O)[C@H](CCCNC(=N)N)NC(=O)[C@H](CCCCN)NC(=O)[C@H](CC(C)C)NC(=O)[C@H](CC(C)C)NC(=O)CN)[C@@H](C)O)C(N)=O (H-GLLKRAKTLL-NH2)
[1]
  MIC: > 36.9 µM
[2]
  MIC: > 36.9 µM

## CC[C@H](C)[C@H](NC(=O)[C@H](Cc1ccccc1)NC(=O)[C@H](CCCCN)NC(=O)[C@H](CC(C)C)NC(=O)[C@H](CC(C)C)NC(=O)CN)C(=O)N[C@@H](CCCCN)C(=O)N[C@@H](Cc1c[nH]c2ccccc12)C(=O)N[C@@H](CC(C)C)C(=O)N[C@@H](CC(C)C)C(N)=O (H-GLLKFIKWLL-NH2)
[15]
  MIC: 256 µM
[16]
  MIC: 7.4 µM (≈ 9.1 µg/mL)
[17]
  MIC: 0.8 µM (≈ 0.984 µg/mL)
[18]
  MIC: 22.1 µM
[19]
  HC50 at 24 h: 0.6 µM

## CC[C@H](C)[C@H](NC(=O)[C@H](CCCNC(=N)N)NC(=O)[C@H](CCCCN)NC(=O)[C@H](CC(C)C)NC(=O)[C@H](CC(C)C)NC(=O)CN)C(=O)N[C@@H](C)C(=O)N[C@H](C(=O)N[C@@H](CC(C)C)C(=O)N[C@@H](CC(C)C)C(N)=O)[C@@H](C)O (H-GLLKRIATLL-NH2)
[1]
  MIC: 10.1 µM (≈ 11.1 µg/mL)
[2]
  MIC: 10.1 µM (≈ 11.1 µg/mL)
[3]
  HC50: 121 µM

## CC(C)C[C@H](NC(=O)[C@H](CC(C)C)NC(=O)[C@@H](NC(=O)[C@H](CCCCN)NC(=O)[C@H](CC1CCCCC1)NC(=O)[C@H](CCCNC(=N)N)NC(=O)[C@H](CCCCN)NC(=O)[C@H](CC(C)C)NC(=O)[C@H](CC(C)C)NC(=O)CN)[C@@H](C)O)C(N)=O (H-GLLKR[Cha]KTLL-NH2)
[15]
  MIC: 15.8 µM
[16]
  MIC: 28.4 µM (≈ 33.9 µg/mL)
[17]
  MIC: 6 µM (≈ 7.16 µg/mL)
[18]
  MIC: 28.4 µM
[19]
  HC50 at 24 h: 304 µM

## CC[C@H](C)[C@H](NC(=O)[C@H](CCCNC(=N)N)NC(=O)[C@H](CCCCN)NC(=O)[C@H](CC(C)C)NC(=O)[C@H](CC(C)C)NC(=O)CN)C(=O)N[C@@H](CCCCN)C(=O)N[C@@H](C)C(=O)N[C@@H](CC(C)C)C(=O)N[C@@H](CC(C)C)C(N)=O (H-GLLKRIKALL-NH2)
[1]
  MIC: 7.1 µM (≈ 7.98 µg/mL)
[2]
  MIC: 14.3 µM (≈ 16.1 µg/mL)
[3]
  HC50: 86.5 µM
